# Test results reported in PubChem BioAssay AID1963986 (Molecular Pharmacology Branch, DTP, NCI, 2024).
# pIC50: −log10 of the molar value.
# Tested on: 171881-019-R-J1-PDC tumor spheroid viability
# Experiment: Anticancer human tumor 171881-019-R-J1-PDC patient-derived invasive breast carcinoma cell line growth inhibition [PI3K]
# Conditions: spheroids with HUVEC and MSC; for pIC50: curve of first compound; for viability, T/C: stronger effect = lower value
# Excerpt: Combinatorial screen of targeted agents with the PI3K inhibitors inavolisib, alpelisib, duvelisib, and copanlisib in multi-cell type tumor spheroids
# A high-throughput screen of multi-cell type tumor spheroids was designed to identify active combinations of targeted small molecules and PI3K pathway inhibitors. Complex spheroids include a stromal component modeled by human endothelial cells (HUVEC) and fibroblasts modeled by human mesenchymal stem cells (MSCs). The concentration ranges selected for each drug and investigational agent were based upon clinically achievable concentrations if the clinical Cmax of the agent was known.
# Compounds. The drugs and investigational agents: inavolisib (NSC800729), alpelisib (NSC765974), duvelisib (NSC772469), copanlisib (NSC816437), ipatasertib (NSC767898), afuresertib (NSC778305), talazoparib (NSC767125), sapanisertib (NSC764658), selumetinib (NSC741078), tovorafenib (DAY101, NSC766906), vemurafenib (NSC761431), ravoxertinib (NSC781343), sotorasib (NSC818433), MRTX1133 (NSC 836407), abemaciclib (NSC 768073), palbociclib (NSC758247), venetoclax (NSC 766270), SY5609 (NSC837396), enzalutamide (NSC755605), and darolutamide (NSC825331), were obtained from the National Cancer Institute (NCI) Developmental Therapeutics Program Chemical Repository. The FDA-approved anticancer drug set is available from the NCI Developmental Therapeutics Program. […] The stock solutions were prepared in dimethyl sulfoxide (DMSO, Sigma-Aldrich, St. Louis, MO, cat. D2650) at 800-fold the tested concentration and stored at -70 degrees C prior to their use. All drugs and investigational agents were tested over a range starting from a high concentration at or near the clinical Cmax and decreasing in half-log increments. If the clinical Cmax for an agent had not been determined, the highest concentration tested was 10 microM.
# Cell Culture. All cells were maintained in an incubator at 37 degrees C and 5% CO2 with 95% humidity. The PDC lines were cultured according to standard operating procedures established by the NCI PDMR (https://pdmr.cancer.gov/sops/default.htm). All PDCs were thawed and cultured in Matrigel-coated flasks prepared with a working solution of 1X Ham's F-12 nutrient mix, without supplementation (Invitrogen, Waltham, MA, cat. 11765054), 100 U/mL penicillin-streptomycin (Invitrogen, cat. 15140122), and 2.5% Matrigel (Corning Inc., Corning, NY, cat. 354248) for the first three passages. The 354836-022-R-J1-PDC, 475296-252-R-J1-PDC, and 997726-040-R-J2-PDC lines were cultured in 6A media, which includes advanced DMEM/F-12 (Thermo Fisher Scientific, cat. 12634028), 10 mM HEPES (Thermo Fisher Scientific, cat. 15630080), 1X GlutaMAX supplement (Thermo Fisher Scientific, cat. 35050061), 0.1 mg/mL primocin (InvivoGen, San Diego, CA, cat. ant-pm-2), 10% defined fetal bovine serum, heat inactivated (HyClone Laboratories Inc., Logan, UT, cat. SH30070.03HI), 50% L-WRN conditioned media (ATCC, cat. CRL-3276), 1.25 mM N-Acetyl-L-cysteine (Sigma-Aldrich, cat. A9165), 10 mM nicotinamide (Sigma-Aldrich, cat. N0636), 1X B-27 supplement (Thermo Fisher Scientific, cat. 17504044), 1X N-2 supplement (Thermo Fisher Scientific, cat. 17502048), and 10 microM Y-27632 dihydrochloride (Tocris Bioscience, Bristol, United Kingdom, cat. 1254). The 624824-186-R-J2-PDC line was cultured in 6C/Colon 1B media, which includes all 6A media components plus 50 ng/mL human EGF recombinant protein (Thermo Fisher Scientific, cat. PHG0311). […]
# [1] = second compound 0.0316 µM, first compound 0.0316 µM
# [2] = second compound 0.0316 µM, first compound 0.1 µM
# [3] = second compound 0.0316 µM, first compound 0.316 µM
# [4] = second compound 0.0316 µM, first compound 1 µM
# [5] = second compound 0.0316 µM, first compound 3.16 µM
# [6] = second compound 0.0316 µM, first compound 10 µM
# [7] = second compound 0.1 µM, first compound 0.0316 µM
# [8] = second compound 0.1 µM, first compound 0.1 µM
# [9] = second compound 0.1 µM, first compound 0.316 µM
# [10] = second compound 0.1 µM, first compound 1 µM
# [11] = second compound 0.1 µM, first compound 3.16 µM
# [12] = second compound 0.1 µM, first compound 10 µM
# [13] = second compound 0.316 µM, first compound 0.0316 µM
# [14] = second compound 0.316 µM, first compound 0.1 µM
# [15] = second compound 0.316 µM, first compound 0.316 µM
# [16] = second compound 0.316 µM, first compound 1 µM
# [17] = second compound 0.316 µM, first compound 3.16 µM
# [18] = second compound 0.316 µM, first compound 10 µM
# [19] = second compound 1 µM, first compound 0.0316 µM
# [20] = second compound 1 µM, first compound 0.1 µM
# [21] = second compound 1 µM, first compound 0.316 µM
# [22] = second compound 1 µM, first compound 1 µM
# [23] = second compound 1 µM, first compound 3.16 µM
# [24] = second compound 1 µM, first compound 10 µM
# [25] = second compound 3.16 µM, first compound 0.0316 µM
# [26] = second compound 3.16 µM, first compound 0.1 µM
# [27] = second compound 3.16 µM, first compound 0.316 µM
# [28] = second compound 3.16 µM, first compound 1 µM
# [29] = second compound 3.16 µM, first compound 3.16 µM
# [30] = second compound 3.16 µM, first compound 10 µM
# [31] = second compound 10 µM, first compound 0.0316 µM
# [32] = second compound 10 µM, first compound 0.1 µM
# [33] = second compound 10 µM, first compound 0.316 µM
# [34] = second compound 10 µM, first compound 1 µM
# [35] = second compound 10 µM, first compound 3.16 µM
# [36] = second compound 10 µM, first compound 10 µM
# 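Note: spheroids exposed to compound for 7 days before viability read.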
# 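Throughout, for viability, T/C: 100% = DMSO vehicle-treated spheroids.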
smiles,measurement,setting,value
Cn1nccc1Nc1nccc(-c2ccn(C(CO)c3ccc(Cl)c(F)c3)c(=O)c2)n1 (stereo unspecified) + CC(Nc1ncnc2nc[nH]c12)c1cc2cccc(Cl)c2c(=O)n1-c1ccccc1,pIC50,second compound 0.0316 µM,6.26
same,pIC50,second compound 0.1 µM,6.33
same,pIC50,second compound 0.316 µM,6.33
same,pIC50,second compound 1 µM,6.46
same,pIC50,second compound 3.16 µM,6.77
same,pIC50,second compound 10 µM,7.45
same,"viability, T/C",[1],94%
same,"viability, T/C",[2],84%
same,"viability, T/C",[3],62.2%
same,"viability, T/C",[4],36.6%
same,"viability, T/C",[5],24%
same,"viability, T/C",[6],20.7%
same,"viability, T/C",[7],91.1%
same,"viability, T/C",[8],88.1%
same,"viability, T/C",[9],54.7%
same,"viability, T/C",[10],37.1%
same,"viability, T/C",[11],23.6%
same,"viability, T/C",[12],19.9%
same,"viability, T/C",[13],104%
same,"viability, T/C",[14],89.6%
same,"viability, T/C",[15],56.9%
same,"viability, T/C",[16],35.1%
same,"viability, T/C",[17],23.1%
same,"viability, T/C",[18],18.5%
same,"viability, T/C",[19],98.4%
same,"viability, T/C",[20],77.4%
same,"viability, T/C",[21],51.4%
same,"viability, T/C",[22],31.3%
same,"viability, T/C",[23],21.3%
same,"viability, T/C",[24],15.7%
same,"viability, T/C",[25],79.3%
same,"viability, T/C",[26],61.2%
same,"viability, T/C",[27],36%
same,"viability, T/C",[28],21.8%
same,"viability, T/C",[29],14.9%
same,"viability, T/C",[30],13%
same,"viability, T/C",[31],51.3%
same,"viability, T/C",[32],39.2%
same,"viability, T/C",[33],27.9%
same,"viability, T/C",[34],15%
same,"viability, T/C",[35],10.6%
same,"viability, T/C",[36],6.93%
Cc1nc(NC(=O)N2CCCC2C(N)=O)sc1-c1ccnc(C(C)(C)C(F)(F)F)c1 (stereo unspecified),"viability, T/C",compound 0.0316 µM,89.2% [middle of 8 runs]
same,"viability, T/C",compound 0.1 µM,86.3% [middle of 8 runs]
same,"viability, T/C",compound 0.316 µM,57.4% [middle of 8 runs]
same,"viability, T/C",compound 1 µM,33.8% [middle of 8 runs]
same,"viability, T/C",compound 3.16 µM,14.5% [middle of 8 runs]
same,"viability, T/C",compound 10 µM,3.58% [middle of 7 runs]
same,IC50,"compound alone, run of 05/08/2023",475 nM [middle of 7 runs]
C#Cc1c(F)ccc2cc(O)cc(-c3ncc4c(N5CC6CCC(C5)N6)nc(OCC56CCCN5CC(F)C6)nc4c3F)c12 (stereo unspecified) + Cc1nc(NC(=O)N2CCCC2C(N)=O)sc1-c1ccnc(C(C)(C)C(F)(F)F)c1,pIC50,second compound 0.0316 µM,6.60
same,pIC50,second compound 0.1 µM,6.94
same,pIC50,second compound 0.316 µM,> 7.50
same,pIC50,second compound 1 µM,> 7.50
same,pIC50,second compound 3.16 µM,> 7.50
same,pIC50,second compound 10 µM,> 7.50
same,"viability, T/C",[1],88.3%
same,"viability, T/C",[2],66.7%
same,"viability, T/C",[3],44.4%
same,"viability, T/C",[4],32.9%
same,"viability, T/C",[5],27.4%
same,"viability, T/C",[6],20%
same,"viability, T/C",[7],72.3%
same,"viability, T/C",[8],51.2%
same,"viability, T/C",[9],37.7%
same,"viability, T/C",[10],26.1%
same,"viability, T/C",[11],20.8%
same,"viability, T/C",[12],16.4%
same,"viability, T/C",[13],46%
same,"viability, T/C",[14],30.1%
same,"viability, T/C",[15],22.6%
same,"viability, T/C",[16],15.6%
same,"viability, T/C",[17],11.7%
same,"viability, T/C",[18],10.2%
same,"viability, T/C",[19],27.2%
same,"viability, T/C",[20],19.1%
same,"viability, T/C",[21],13%
same,"viability, T/C",[22],9.14%
same,"viability, T/C",[23],7.33%
same,"viability, T/C",[24],5.95%
same,"viability, T/C",[25],11%
same,"viability, T/C",[26],7.63%
same,"viability, T/C",[27],5.67%
same,"viability, T/C",[28],4.44%
same,"viability, T/C",[29],4%
same,"viability, T/C",[30],1.21%
same,"viability, T/C",[31],2.71%
same,"viability, T/C",[32],3.19%
same,"viability, T/C",[33],2.3%
same,"viability, T/C",[34],2.05%
same,"viability, T/C",[35],1.56%
same,"viability, T/C",[36],0.74%
